Assay type in all cases: cell-based
In assay [1] the test system is panel of solid tumor and hematopoietic cancer cell lines. Put plainly: MTT proliferation assay, panel of solid tumor and hematopoietic cancer cell lines. How it is done: (§1) In one study, in vitro cytotoxicity of a PPARγ agonist with a favorable toxicity profile (pioglitazone [Actos®]) was tested against two PPARγ antagonists (T0070907 and GW9662) in a panel of solid tumor and hematopoietic cancer cell lines, using an MTT proliferation assay.
(§2) In one exemplary method, stock solutions of the above referenced agents were dissolved in 50:50 DMSO:DMF and then diluted into cell growth medium. Concentrations of 2-40 micromolar over 5-7 days provided significant growth inhibition for a range of hematopoietic (NHL & MM) and epithelial lines (renal cell, colon, breast). […] Also, both antagonists were dissolved in a cyclodextrin-propylene glycol vehicle and administered to mice at doses of 7.5-15 mg/kg intraperitoneally daily for 3 weeks with mild-moderate toxicity.
(Tetrazolium assays rely on reduction of a dye to a coloured formazan, in cell work by metabolically active cells.)

The subject of a further assay is solid tumor lines. Put plainly: MTT proliferation assay, solid tumor lines. The method, then:
as §1, §2

The test system of assay [2] is Hematopoietic (NHL and MM) cell lines. Briefly: MTT proliferation assay, hematopoietic (NHL and MM) cell lines. The note with it: unit printed only in the preceding sentence. How it is done: as §1, §2

Structures are written as SMILES. “Also recorded” adds a separate entry of the source. Read-outs that look alike come from different tables or passages of the source.

In general, IC50 refers to the midpoint of a concentration-inhibition curve.

With `O=C(Nc1ccccc1)c1cc([N+](=O)[O-])ccc1Cl` [GW9662], the “effect of combination with the agonist pioglitazone on growth inhibition of cancer cell lines” value in assay [1] is “additive increases in growth inhibition; also recorded: additive effects”.
For `O=C(Nc1ccncc1)c1cc([N+](=O)[O-])ccc1Cl` [T0070907], the “effect of combination with the agonist pioglitazone on growth inhibition of cancer cell lines” value in assay [1] is listed as “additive increases in growth inhibition; also recorded: additive effects”. For the same compound, in assay [1] (comparison of IC50 values), the relative potency entry is listed as “more potent than GW9662”.
Turning to `CCc1ccc(CCOc2ccc(CC3SC(=O)NC3=O)cc2)nc1` (stereo not shown) [pioglitazone], the IC50 in the assay on solid tumor lines (MTT proliferation assay, range across solid tumor lines, read-out: IC50 in solid tumor lines (range over lines)) is at least 11.1 µM; in the assay on solid tumor lines (mean±SD across solid tumor lines, read-out: IC50 in solid tumor lines, mean±SD), 60.1 ± 28.1 µM; in assay [2] (MTT proliferation assay, range across NHL and MM lines, read-out: IC50 in hematopoietic (NHL and MM) cell lines (range over lines)) it was 82 to 125 µM; in assay [2] (mean±SD across NHL and MM lines, read-out: IC50 in hematopoietic (NHL and MM) cell lines, mean±SD), 101 ± 17.7 µM.
